Laboratory results published in patent US9988380B2, “Quorum sensing inhibitors” (priority 2013, dated 2018).

Experiments:
rhlA-gfp(ASV) expression = assay: Inhibition of the Rhl QS system, rhlA-gfp(ASV) reporter in PAO1 wild-type and lasR mutant; assay type: cell-based, P. aeruginosa
Description: Inhibition of the Rhl and PQS QS systems in wild-type PAO1 and PAO1 lasR mutant. Wild-type P. aeruginosa PAO1 strains harboring either the rhlA-gfp(ASV) reporter or the pqsA-gfp(ASV) reporter, and a P. aeruginosa PAO1 lasR mutant harboring either the rhlA-gfp(ASV) reporter or the pqsA-gfp(ASV) reporter were used for this experiment (Refer to FIG. 11 for strain information). Overnight cultures of these four strains were diluted 100-fold in ABTGC media within 96-well microtitre plates to a final volume of 200 μL per well. Each of the five QSIs was added in triplicate to a final concentration of 50 μM. 0.5% DMSO was used as a negative control. The microtitre plate was incubated at 37° C. in a Tecan Infinite 200 Pro plate reader where GFP and OD600 readings were measured at 15 min intervals.
Effect of QSIs on Rhl and Pqs Quorum-Sensing Systems. In order to address the problem of the specificity of present compounds, the five identified QSI compounds were tested to see if they had any effect on the rhl and pqs systems. The five QSIs were tested against a PAO1 wild-type and a PAO1 lasR mutant harboring either the rhlA-gfp (ASV) bioreporter or the pqsA-gfp (ASV) bioreporter. The rhlA system is dependent on the RhlR/I system. By doing so, we were able to determine if a QSI is able to inhibit the other two QS systems (i.e. rhl and pqs) in a lasR-dependent/independent manner (FIG. 8).

[1] = system: P. aeruginosa PAO1 biofilms; assay: Glass slide biofilm assay for observation of eDNA release; assay type: cell-based; details: ABTG medium containing 25 μM G1, 24 h, PI staining
Description: Glass Slide Biofilm Assay for Observation of eDNA Release. The glass slide biofilm assay was performed (Liu et al. 2010 Synergistic activities of an efflux pump inhibitor and iron chelators against Pseudomonas aeruginosa growth and biofilm formation. Antimicrob Agents Chemother 54:3960-3963). Briefly, gfp-tagged P. aeruginosa PAO1 biofilms were cultivated in 50 ml BD falcon tubes containing 15 ml ABTG medium. A sterile 24 mm×60 mm glass cover slide was inserted into each falcon tube for supporting biofilm growth. G1 (10 μm) was added into the biofilm medium to examine its impact on P. aeruginosa PAO1 biofilm formation. DMSO was added alone to the medium as control. Biofilms were incubated at 37° C. without shaking. 2 μM propidium iodide (Sigma-Aldrich) was added to biofilm cultures to stain extracellular DNA for 5 min after 24-hour growth. After that, biofilm attached glass slides were observed by confocal laser scanning microscopy (CLSM).

[2] = system: elastase production by P. aeruginosa PAO1; assay: Elastase assay of culture supernatants (EnzChek Elastase Assay Kit); assay type: cell-based; details: 50 and 100 μM, 2 h cultivation
Description: Elastase Assay. P. aeruginosa PAO1 wild-type and an elastase negative lasI rhlI mutant were cultivated in LB medium overnight at 37° C. with shaking. Overnight cultures were 1:100 diluted to 5 ml ABTGC medium and incubator at 37° C. with shaking. Compound G1 was supplemented into the PAO1 cultures at final concentrations of 0, 50, 100 μM respectively. After 2 h incubation, 0.8 mL culture supernatants were sampled by centrifugation (18000 g, 4 min) and filtration through 0.2 micron filters. Elastase activity of P. aeruginosa culture supernatants was measured by using The EnzChekElastase Assay Kit (Invitrogen), which uses BODIPY-FL-labeled DQ elastin conjugate as the substrate of elastase. The BODIPY-FL-labeled DQ elastins conjugate when cleaved by elastase enzyme, yields highly fluorescent fragments. Fluorescence was recorded every 6 min for 180 min by using a Tecan Infinite 200 Pro plate reader (excitation at 490 nm, emission at 520 nm).

Which results are given for `N=c1[nH]c(=O)c2nn[nH]c2[nH]1` [Compound G1, 5-imino-4,6-dihydro-3H-1,2,3-triazolo[5,4-d]pyrimidin-7-one]?
inhibition of rhlA-gfp expression (rhlA-gfp(ASV) expression; PAO1 lasR mutant, 50 μM QSI): 46.5%; induction of the rhl QS system (rhlA-gfp(ASV) expression; data not shown): delay the induction of the rhl QS system; inhibition of rhlA-gfp expression (rhlA-gfp(ASV) expression; wild-type PAO1, 50 μM QSI): 23.1%; extracellular DNA (eDNA) in biofilms [1]: less eDNA was observed; elastase production (elastase activity of culture supernatants) [2]: almost abolish elastase production
